Data as given in ChEMBL document CHEMBL6114969, “Ultra-short lipopeptides containing d-amino acid exhibiting excellent stability and antibacterial activity against gram-positive bacteria” (Eur J Med Chem, 2025).
Converted amounts (≈) assume the structure as drawn. The source made the active and inactive calls. The calls are words filed in the database; no cut-off is given here.

Legend:
Staphylococcus aureus [1] = assay: Antibacterial activity against methicillin-resistant Staphylococcus aureus ATCC 33591 infected in Balb/c mouse model of acute systemic infection assessed as reduction in bacterial count in liver at 10 mg/kg, ip measured after 5 days; assay type: functional, organism-based; conditions: time 5.0 day
Enterococcus faecalis = assay: Antibacterial activity against Enterococcus faecalis ATCC 29212 incubated for 18 to 24 hrs by broth microdilution method; assay type: functional; conditions: time 18-24 hrs
[2] = Stability in mouse serum assessed as half life measured upto 96 hrs by RP-HPLC analysis; assay type: ADME, cell-free
[3] = Stability in mouse serum assessed as compound degradation measured upto 96 hrs by RP-HPLC analysis; assay type: ADME, cell-free; conditions: read-out: Drug degradation
Staphylococcus aureus [4] = assay: Synergistic bactericidal activity against persistent methicillin-resistant Staphylococcus aureus ATCC 33591 incubated for 18 to 24 hrs in presence of polymyxin B by time-kill assay; assay type: functional, organism-based; conditions: time 18-24 hrs
Staphylococcus aureus [5] = assay: Synergistic bactericidal activity against persistent methicillin-resistant Staphylococcus aureus ATCC 33591 at high concentration incubated for 18 to 24 hrs in presence of gentamycin by time-kill assay; assay type: functional, organism-based; conditions: time 18-24 hrs
Staphylococcus aureus [6] = assay: Antibacterial activity against drug-resistant Staphylococcus aureus ATCC 25923 incubated for 18 to 24 hrs; assay type: functional; conditions: time 18-24 hrs
Staphylococcus aureus [7] = assay: Antibacterial activity against ciprofloxacin-resistant Staphylococcus aureus ATCC 25923 incubated for 18 to 24 hrs; assay type: functional; conditions: time 18-24 hrs
Staphylococcus aureus [8] = assay: Antibacterial activity against ciprofloxacin-resistant methicillin-resistant Staphylococcus aureus ATCC 33591 incubated for 18 to 24 hrs; assay type: functional; conditions: time 18-24 hrs
Staphylococcus aureus [9] = assay: Antibacterial activity against polymyxin B-resistant methicillin-resistant Staphylococcus aureus ATCC 33591 incubated for 18 to 24 hrs; assay type: functional; conditions: time 18-24 hrs
Staphylococcus aureus [10] = assay: Synergistic antibacterial activity against methicillin-resistant Staphylococcus aureus ATCC 33591 assessed as fractional inhibitory concentration index upto 2 times MIC incubated for 18 to 24 hrs in presence of ciprofloxacin by checkerboard assay; assay type: functional; conditions: time 18-24 hrs
Staphylococcus aureus [11] = assay: Additive bactericidal activity against methicillin-resistant Staphylococcus aureus ATCC 33591 incubated for 18 to 24 hrs in presence of ciprofloxacin by time-kill assay; assay type: functional, organism-based; conditions: time 18-24 hrs
DNA = assay: Binding affinity to genomic DNA in methicillin-resistant Staphylococcus aureus ATCC 33591 at 1 to 8 times MIC; assay type: nucleic-acid assay
[12] = Toxicity in Balb/c mouse assessed as change in liver co-efficient at 20 to 80 mg/kg, ip measured after 7 days; assay type: organism-based; conditions: in vivo, 168 h, dose 20-80 mg/kg, time 7 day
[13] = Toxicity in Balb/c mouse assessed as change in kidney co-efficient at 20 to 80 mg/kg, ip measured after 7 days; assay type: organism-based; conditions: in vivo, 168 h, dose 20-80 mg/kg, time 7 day
[14] = Toxicity in Balb/c mouse assessed as change in serum AST level at 20 to 80 mg/kg, ip measured after 7 days; assay type: organism-based; conditions: in vivo, 168 h, dose 20-80 mg/kg, time 7 day
[15] = Toxicity in Balb/c mouse assessed as change in serum BUN level at 20 to 80 mg/kg, ip measured after 7 days; assay type: organism-based; conditions: in vivo, 168 h, dose 20-80 mg/kg, time 7 day
[16] = Toxicity in Balb/c mouse assessed as cell swelling in kidney at 80 mg/kg, ip measured after 7 days by H and E staining based analysis; assay type: organism-based; conditions: in vivo, 168 h, time 7 day
[17] = Toxicity in Balb/c mouse assessed as cell swelling in lung at 80 mg/kg, ip measured after 7 days by H and E staining based analysis; assay type: organism-based; conditions: in vivo, 168 h, time 7 day
Staphylococcus aureus [18] = assay: Antibacterial activity against methicillin-resistant Staphylococcus aureus ATCC 33591 infected in Balb/c mouse model of acute systemic infection assessed as reduction in bacterial count in kidney at 10 mg/kg, ip measured after 5 days; assay type: functional, organism-based; conditions: time 5.0 day
Staphylococcus aureus [19] = assay: Antibacterial activity against methicillin-resistant Staphylococcus aureus ATCC 33591 infected in Balb/c mouse model of acute systemic infection assessed as reduction in cell swelling in heart at 10 mg/kg, ip measured after 5 days by H and E staining based analysis; assay type: functional, organism-based; conditions: time 5.0 day
Staphylococcus aureus [20] = assay: Antibacterial activity against methicillin-resistant Staphylococcus aureus ATCC 33591 infected in Balb/c mouse model of acute systemic infection assessed as reduction in inflammatory cell infiltration in liver at 10 mg/kg, ip measured after 5 days by H and E staining based analysis; assay type: functional, organism-based; conditions: time 5.0 day
Staphylococcus aureus [21] = assay: Antibacterial activity against methicillin-resistant Staphylococcus aureus ATCC 33591 infected in Balb/c mouse model of acute systemic infection assessed as reduction in hypoplasia of white pulp in spleen at 10 mg/kg, ip measured after 5 days by H and E staining based analysis; assay type: functional, organism-based; conditions: time 5.0 day
Mus musculus = assay: In vivo inhibition of inflammation in Balb/c mouse model of acute systemic infection infected with methicillin-resistant Staphylococcus aureus ATCC 33591 assessed as reduction in IL-1beta activity at 10 mg/kg, ip measured after 5 days; assay type: functional, organism-based; conditions: time 5.0 day
Staphylococcus aureus [22] = assay: Antibacterial activity against methicillin-resistant Staphylococcus aureus ATCC 33591 infected in Balb/c mouse model of pneumonia infection assessed as reduction in bleeding in lung at 10 mg/kg, ip administered thrice at 4, 8 and 12 hrs post-infection measured after 24 hrs post-infection by H and E staining based analysis; assay type: functional, organism-based; conditions: time 20.0 hrs
Staphylococcus aureus [23] = assay: Antibacterial activity against methicillin-resistant Staphylococcus aureus ATCC 33591 infected in Balb/c mouse model of pneumonia infection assessed as reduction in alveolar contraction in lung at 10 mg/kg, ip administered thrice at 4, 8 and 12 hrs post-infection measured after 24 hrs post-infection in presence of polymyxin B by H and E staining based analysis; assay type: functional, organism-based; conditions: time 20.0 hrs
Staphylococcus aureus [24] = assay: Antibacterial activity against methicillin-resistant Staphylococcus aureus ATCC 33591 infected in Balb/c mouse model of pneumonia infection assessed as reduction in IL-1beta activity in lung at 10 mg/kg, ip administered thrice at 4, 8 and 12 hrs post-infection measured after 24 hrs post-infection by IHC analysis; assay type: functional, organism-based; conditions: time 20.0 hrs
Staphylococcus aureus [25] = assay: Antibacterial activity against methicillin-resistant Staphylococcus aureus ATCC 33591 infected in Balb/c mouse model of skin wound infection assessed as reduction in bacterial load in skin at 10 mg/kg, ip administered thrice at 1, 24 and 48 hrs post-infection measured after 72 hrs post-infection; assay type: functional, organism-based; conditions: time 71.0 hrs
Staphylococcus aureus [26] = assay: Antibacterial activity against methicillin-resistant Staphylococcus aureus ATCC 33591 infected in Balb/c mouse model of skin wound infection assessed as crusted back wound at 10 mg/kg, ip administered thrice at 1, 24 and 48 hrs post-infection measured after 9 days relative to control; assay type: functional; conditions: time 9 day
Staphylococcus aureus [27] = assay: Antibacterial activity against methicillin-resistant Staphylococcus aureus ATCC 33591 infected in Balb/c mouse model of skin wound infection assessed as crusted back wound at 10 mg/kg, ip administered thrice at 1, 24 and 48 hrs post-infection measured after 9 days in presence of polymyxin B relative to control; assay type: functional; conditions: time 9 day
Staphylococcus aureus [28] = assay: Antibacterial activity against methicillin-resistant Staphylococcus aureus ATCC 33591 infected in Balb/c mouse model of skin wound infection assessed as wound heal at 10 mg/kg, ip administered thrice at 1, 24 and 48 hrs post-infection measured after 14 days in presence of polymyxin B relative to control; assay type: functional; conditions: time 14 day
Staphylococcus aureus [29] = assay: Antibacterial activity against methicillin-resistant Staphylococcus aureus ATCC 33591 infected in Balb/c mouse model of skin wound infection assessed as reduction in TNF-alpha activity in skin at 10 mg/kg, ip administered thrice at 1, 24 and 48 hrs post-infection measured after 14 days in presence of polymyxin B by IHC analysis; assay type: functional, organism-based; conditions: time 14.0 day

Structure (SMILES): CCCCCCCCCCCC(=O)N[C@H](CCCNC(=N)N)C(=O)N[C@H](CCCNC(=N)N)C(=O)N[C@H](Cc1c[nH]c2ccccc12)C(=O)O
- Activity (Staphylococcus aureus [1]): Active
- MIC (Enterococcus faecalis): 8 µM (≈ 5.59 µg/mL)
- half-life [2]: > 48 h
- metabolised at 96 h [3]: ~20%
- Activity (Staphylococcus aureus [4]): Dose-dependent-effect
- Activity (Staphylococcus aureus [5]): Active
- MIC (Staphylococcus aureus [6]): 8 µM (≈ 5.59 µg/mL)
- MIC (Staphylococcus aureus [7]): 8 µM (≈ 5.59 µg/mL)
- MIC (Staphylococcus aureus [8]): 32 µM (≈ 22.4 µg/mL)
- MIC (Staphylococcus aureus [9]): 16 µM (≈ 11.2 µg/mL)
- fractional inhibitory concentration index (FICI) (Staphylococcus aureus [10]): 0.75
- Activity (Staphylococcus aureus [11]): Active
- Activity (DNA): Not active; Compound Exhibited Weak Affinity
- Activity [12]: Toxic
- Activity [13]: Toxic
- Activity [14]: Non-toxic
- Activity [15]: Non-toxic
- Activity [16]: Toxic
- Activity [17]: Toxic
- Activity (Staphylococcus aureus [18]): Active
- Activity (Staphylococcus aureus [19]): Active
- Activity (Staphylococcus aureus [20]): Active
- Activity (Staphylococcus aureus [21]): Active
- inhibition (Mus musculus): Active
- Activity (Staphylococcus aureus [22]): Active
- Activity (Staphylococcus aureus [23]): Not active; Compound Exerted Slightly More Severe Than Compound Treatment Alone
- Activity (Staphylococcus aureus [24]): Active
- Activity (Staphylococcus aureus [25]): Active
- Activity (Staphylococcus aureus [26]): 100%
- Activity (Staphylococcus aureus [27]): 100%
- Activity (Staphylococcus aureus [28]): 100%
- Activity (Staphylococcus aureus [29]): Active
